A melting point compilation (Tetko et al.; mined from patent text by program, amines drawn as free bases though some values may be those of a salt)
Residues, ends and D or L forms follow the SMILES beside them.

Row | melting point [°C] | Structure (SMILES)
1 | 205 to 208 | N#Cc1c(-c2ccc(Cl)c(Cl)c2)[nH]c(C(F)(F)F)c1C(F)(F)F
2 | 79.8 to 80.7 | c1ccc(C2NCCc3sccc32)cc1 (stereo not drawn)
3 | 72 to 73 | Cc1cccc(C=Cc2ccncc2)n1
4 | 183 to 184 | O=C(Nc1ccc2c(c1)CS(=O)(=O)N2)C(=O)N1CCC(Cc2ccc(F)cc2)CC1
5 | 77 to 79 | O=C1C2=C(CCCC2)C(=O)N1c1ccc(Cl)c(CO)c1
6 | 96 to 98 | CC(=O)C1=C(O)CC(C)OC1=O (stereo not drawn)
7 | 218 to 220 | CCN1C(=O)CCCc2c(OC)ccc(Nc3ncc(Cl)c(Nc4ccc(N5CCOCC5)cc4OC)n3)c21
8 | 290 to 291 | O=C1CC(c2ccccc2O)=Nc2ccc(N3CCOCC3)cc21
9 | > 250 | Fc1ccc(-c2ccc3[nH]c4c(ccc5cc[nH]c54)c3c2)cc1
10 | 138 to 139 | CCCc1c(N)c(C(C)=O)cc(C(C)=O)c1O
11 | 114 to 115 | COc1ccc(CNc2c(C)c(C)c3c(c2C)C(c2ccc(F)cc2)C(C)(C)O3)cc1 (stereo not drawn)
12 | 178 to 180 | COc1ccc(N2C(=O)C(O)C2c2ccccc2Cl)cc1 (stereo not drawn)
13 | 120 to 121 | CCOC(=O)C(C)Cc1ccnc(-c2nc(=O)c3ccccc3s2)c1 (stereo not drawn)
14 | 133 to 135 | CN(C)C=CC(=O)c1cncnc1
15 | 290 to 292 | CN1C(=O)c2cccnc2NS1(=O)=O
16 | 190 | Cn1cncc1C(O)c1ccc2c(c1)c(-c1cccc(Cl)c1)nc1nnnn12 (stereo not drawn)
17 | 222 to 226 | O=C1C(O)=C(c2ccccc2)CN1Cc1ccco1
18 | 275 to 278 | CCn1c(=O)c(-c2c(Cl)cccc2Cl)cc2cnc(Nc3cc(OC)c(OC)c(OC)c3)nc21
19 | 192 | CCCCCCCCCCCCCCCCCC(=O)Nc1ccc(NC(=O)NS(=O)(=O)c2ccc3ccccc3c2)cc1
20 | 130 | O=C(CCCC(=O)c1ccccc1)NC1CCN(Cc2ccc(Cl)c(Cl)c2)CC1
21 | 290 to 295 | CON=C(c1ccc(F)cc1)c1ccc2[nH]c(NC(=O)OC)nc2c1
22 | 155 | CC(=O)c1ccc2c(c1)Cc1ccc(C(C)=O)cc1-2
23 | 182 to 183 | Cc1ccc(C(=O)CNC(=O)c2ccc(C(F)(F)F)cc2)s1

Row | melting point [°C] | Structure (SMILES)
24 | 269 to 271 | CN1C(=O)C(c2ccccc2)(C2CCNCC2)N=C1N (stereo not drawn)
25 | 190 to 194 | CCCCc1nc2c(N)nc3ccc(OCc4ccccc4)cc3c2n1CCCCNC(=O)Nc1ccccc1
26 | 119 to 121 | O=C1C(CCO)Oc2ccc(-c3ccccc3)cc2N1Cc1cccc(Cl)c1 (stereo not drawn)
27 | 139 to 140 | O=C1NC(C(=O)NCCO[N+](=O)[O-])C(c2ccccc2)S1 (stereo not drawn)
28 | 212 to 213 | CCn1cc(C(=O)O)c(=O)cc1-c1cccc(Cl)c1
29 | 260 to 261 | CNCc1c(C)c([N+](=O)[O-])cc2[nH]c(=O)c(=O)[nH]c12
30 | 256 to 258 | O=C1CCC(N2Cc3c(OCc4cc(Cl)ccc4Cl)cccc3C2=O)C(=O)N1 (stereo not drawn)
31 | 215 to 217 | COc1cc(-n2cccn2)ccc1-n1cc(OC)c(=O)c(-c2ccnn2-c2cccc(C(F)(F)F)c2)n1
32 | 143 to 145 | O=Cc1ccc(-c2nc(Oc3ccccc3)cc(Oc3ccccc3)n2)cc1
33 | 118 to 121 | c1cc(-n2cnnn2)ccc1SCN1CCOCC1
34 | 165 to 167 | CON=C(C(=O)O)c1nc(NC=O)sc1Br
35 | 194 to 197 | CC(=O)N1CCN=C1Nc1ccnn1-c1cccc(C(F)(F)F)c1
36 | 147 to 148 | COCCOCc1ccc(-c2ccc(C(=O)Nc3ccc(OC)c(N4CCN(C)CC4)c3)cc2)c(C)c1
37 | 205 to 206 | CC12C(=CCC3C1CCC1(C)C3CCC13OCCO3)CC(O)CC2O (stereo not drawn)
38 | 120 | CCN(O)C(=O)CCc1ccc2c(c1)C(=O)c1ccccc1CO2
39 | 108 | FC(F)(F)c1nncn1-c1ccc(Cl)cc1
40 | 310 to 312 | NC(=O)c1cc2c(Oc3ccc(-n4ccnc4)cc3)cncc2s1
41 | 196 to 199 | COC(=O)C(Cc1ccccc1)NC(=O)C(CC(=O)O)NC(=O)C(N)CO (stereo not drawn) (H-Ser-Asp-Phe-OMe; configuration not given here)
42 | 99 to 101 | C#CCOCc1cc(-c2ccc(C(F)(F)F)n(C)c2=O)c(F)cc1Cl
43 | 221 to 226 | COc1cc(C(=O)O)ccc1Cc1cn(C)c2ccc(CCNC(=O)N3CCOCC3)cc12
44 | > 240 | CC(=O)Nn1c2c(c3ccccc31)Cc1ccccc1-2
45 | 216 to 220 | CS(=O)(=O)Nc1cccc(Nc2nc(NCc3ncc[nH]3)c3nc[nH]c3n2)c1
46 | 186 to 187 | NNC(=S)NN=Cc1ccco1

Row | melting point [°C] | Structure (SMILES)
47 | 47 to 48 | CCC(=NOc1ccc(F)cc1)c1cc(Cl)ccc1NS(=O)(=O)C(F)(F)F
48 | 100 to 131 | COc1ccc(C=CN(C)C)c([N+](=O)[O-])c1[N+](=O)[O-]
49 | 141 to 142 | CCCCCCCCCC(=O)Nc1ccc(S(=O)(=O)Nc2nnc(C)s2)cc1
50 | 175 to 177 | CN1CCC(=C2c3ccccc3C3=C(c4ccccc42)C2(C)C=CC3O2)CC1 (stereo not drawn)
51 | 134 to 136 | COCc1ccoc1-c1cccc(-n2c(N)nc3ccccc32)c1
52 | 190 to 192 | CCCCN(CCCC)c1ccc(C=CC=CC2=C(C#N)C(=C(C#N)C#N)OC2(c2ccccc2)C(F)(F)F)c(OC)c1 (stereo not drawn)
53 | 124 to 125 | CC(C)(C)[C@H]1CC[C@H](Nc2ncc(CCc3cccnc3)c3ccccc23)CC1
54 | 162 to 164 | CON(C(=O)c1cn(C)nc1C(F)F)C(C)c1cccc(-c2ccc(Cl)c(Cl)c2)c1 (stereo not drawn)
55 | 145 to 158 | CCOc1cc(C)ccc1C1CCN(CCCCNC(=O)c2ccc3oc(-c4ccc(Cl)cc4)cc3c2)CC1
56 | 81 to 84 | Cc1cc(Oc2ccc(F)cc2[N+](=O)[O-])n[nH]1
57 | 90 to 91 | CCOC(=O)c1ccc(NC(=O)COC)cc1NC(=O)COC
58 | 175 to 181 | Cn1c(-c2ccccc2)c2ccsc2nc1=O
59 | 320 to 321 | Cc1cnc2[nH]cc(/C=C3\N=C(N4CCCCC4)NC3=O)c2c1
60 | 202 to 205 | O=C1Nc2ccccc2SC[C@@H]1N1C(=O)c2ccccc2C1=O
61 | 78 to 81 | CONS(=O)(=O)c1cccc(C(F)(F)F)c1
62 | 101 to 103 | CCC(C(=O)N(C)C)n1ccc(-c2ccccc2)n1 (stereo not drawn)
63 | 165 to 168 | CC(=O)NC1CCN(c2ccccn2)CC1
64 | 42 to 46 | CCOC(=O)C(Oc1ccc(Oc2ccc(C#N)cc2)cc1)C(=O)OCC
65 | 118 to 119 | COc1ccc(COC(=O)NCCc2c[nH]c3ccc(F)cc23)cc1
66 | 86 to 88 | COc1ccc2c(c1)-c1noc(N3CCNCC3)c1CC2
67 | 166 to 174 | CN(C)Cc1ccc2c(c1)c(C1CCN(CCN3CCNC3=O)CC1)cn2-c1ccc(F)cc1

Row | Structure (SMILES) | melting point [°C]
68 | CN1CC(C[N+]2([O-])CC(=O)NC2=O)CC2c3cccc4[nH]cc(c34)CC21 (stereo not drawn) | 163 to 165
69 | Cc1cccc2c1C(=O)N(C)Cc1c(C#CC(C)(C)O)ncn1-2 | 165 to 167
70 | CC(C)OCN1CCN(Cc2ccc(Cl)nc2)C1=NC#N | 85 to 87
71 | O=C(C(CCO)N1CCCC1=O)N1CCOCC1 (stereo not drawn) | 105 to 106
72 | C1=C(c2ccccc2)CCN(Cc2cc3ccccc3[nH]2)C1 | 128 to 130
73 | CN(C)C1(c2ccccc2)CCC(=O)CC1 | 104 to 108
